The supplement of paper PMC13380429

Legend:
[1] = tested on: A549-ACE2 infected with SARS-CoV-2; assay: cell count relative to DMSO; higher = less toxic; conditions: 24 h
[2] = tested on: Calu-3; assay: cell viability relative to DMSO; higher = less toxic; conditions: 72 h
[3] = tested on: Vero E6; assay: as above; conditions: 72 h
[4] = tested on: U2OS; assay: as above; conditions: 72 h
[5] = tested on: Caco-2; assay: as above; conditions: 72 h
[6] = tested on: HepG2; assay: as above; conditions: 72 h
[7] = tested on: A549-ACE2 infected with SARS-CoV-2; assay: SARS-CoV-2 infection rate relative to DMSO; higher = more infection; conditions: 24 h
[8] = tested on: A549-ACE2 infected with SARS-CoV-2; assay: morphology score (similarity to uninfected cells); higher = more like uninfected cells; conditions: 24 h
[9] = tested on: Calu-3; assay: drug sensitivity score (DSS) for viability; higher = more toxic; extreme values may be limits of the assay; conditions: 72 h
[10] = tested on: Vero E6; assay: as above; conditions: 72 h
[11] = tested on: U2OS; assay: as above; conditions: 72 h
[12] = tested on: Caco-2; assay: as above; conditions: 72 h
[13] = tested on: HepG2; assay: as above; conditions: 72 h
[14] = tested on: A549-ACE2; assay: drug-induced phospholipidosis relative to tamoxifen; higher = more phospholipidosis
[15] = tested on: Calu-3; assay: relative viability EC50 (midpoint between 100% and the lowest measured viability); higher = less toxic; conditions: 72 h
[16] = tested on: Vero E6; assay: as above; conditions: 72 h
[17] = tested on: U2OS; assay: as above; conditions: 72 h
[18] = tested on: Caco-2; assay: as above; conditions: 72 h
[19] = tested on: HepG2; assay: as above; conditions: 72 h
[20] = tested on: A549-ACE2; assay: phospholipidosis EC50; higher = less potent phospholipidosis inducer

C/C(=N\NC(=S)N1CCC1)c1ccccn1
Conditions	SARS-CoV-2 infection rate, [7] [%]	cell count, [1] [%]	cell viability, [2] [%]	cell viability, [3] [%]	cell viability, [4] [%]	cell viability, [5] [%]	cell viability, [6] [%]	morphology score, [8]
1 nM	–	–	97.3	102	101	91.8	104	–
10 nM	–	–	102	96.6	101	14.9	74.3	–
0.1 µM	104	96	–	–	–	–	–	-0.24
100 nM	–	–	56.8	70.5	59	17.9	5.6	–
0.3 µM	104	95	–	–	–	–	–	-0.09
1 µM	104	89	–	–	–	–	–	-0.19
1000 nM	–	–	38.4	31.3	28.1	39.6	11.4	–
3 µM	68	88	–	–	–	–	–	0.17
10000 nM	–	–	25.4	14.5	15.4	34	21	–

Conditions	drug sensitivity score	relative viability EC50 [µM]
[9]	18	–
[10]	16.4	–
[11]	18.8	–
[12]	38.4	–
[13]	32.8	–
[15]	–	0.0907
[16]	–	0.206
[17]	–	0.122
[18]	–	0.0024
[19]	–	0.0148

drug-induced phospholipidosis [%], [14]
Conditions	0.3 µM	0.833333 µM	3.33333 µM	6.66667 µM	10 µM	30 µM
24 h	11.7	5.99	0.42	-4.61	-12.7	-11.9
48 h	–	–	–	–	-6.55	–

Nc1nc(NC[C@H]2CC[C@H](CNS(=O)(=O)c3cccc4ccccc34)CC2)nc2ccccc12
Conditions	SARS-CoV-2 infection rate [%]	cell count [%]	cell viability [%]	morphology score	phospholipidosis EC50 [µM]
[1], 0.1 µM	–	105	–	–	–
[1], 0.3 µM	–	101	–	–	–
[1], 1 µM	–	101	–	–	–
[1], 3 µM	–	123	–	–	–
[2], 1 nM	–	–	89.3	–	–
[2], 10 nM	–	–	95.8	–	–
[2], 100 nM	–	–	98.8	–	–
[2], 1000 nM	–	–	98.1	–	–
[2], 10000 nM	–	–	0.9	–	–
[3], 1 nM	–	–	97	–	–
[3], 10 nM	–	–	95.8	–	–
[3], 100 nM	–	–	99.9	–	–
[3], 1000 nM	–	–	91.6	–	–
[3], 10000 nM	–	–	4	–	–
[4], 1 nM	–	–	101	–	–
[4], 10 nM	–	–	101	–	–
[4], 100 nM	–	–	98.5	–	–
[4], 1000 nM	–	–	96.8	–	–
[4], 10000 nM	–	–	3.6	–	–
[5], 1 nM	–	–	102	–	–
[5], 10 nM	–	–	97.4	–	–
[5], 100 nM	–	–	93.8	–	–
[5], 1000 nM	–	–	95	–	–
[5], 10000 nM	–	–	12.7	–	–
[6], 1 nM	–	–	98.2	–	–
[6], 10 nM	–	–	99.6	–	–
[6], 100 nM	–	–	101	–	–
[6], 1000 nM	–	–	86.3	–	–
[6], 10000 nM	–	–	0.8	–	–
[7], 0.1 µM	101	–	–	–	–
[7], 0.3 µM	95	–	–	–	–
[7], 1 µM	90	–	–	–	–
[7], 3 µM	12	–	–	–	–
[8], 0.1 µM	–	–	–	0.06	–
[8], 0.3 µM	–	–	–	-0.01	–
[8], 1 µM	–	–	–	0.19	–
[8], 3 µM	–	–	–	0.63	–
[20], 24 h	–	–	–	–	1.03
[20], 48 h	–	–	–	–	3.12
[20], 72 h	–	–	–	–	6.11

Conditions	drug sensitivity score	relative viability EC50 [µM]
[9]	5.8	–
[10]	6.7	–
[11]	5.8	–
[12]	5.6	–
[13]	7.8	–
[15]	–	3.03
[16]	–	2.44
[17]	–	2.92
[18]	–	2.71
[19]	–	2.06

drug-induced phospholipidosis [%], [14]
Conditions	0.3 µM	0.833333 µM	3.33333 µM	6.66667 µM	10 µM	30 µM
24 h	4.45	16.1	78.1	111	51.3	58.3
48 h	5.61	11.2	82	124	–	–
72 h	6.01	9.91	62.8	129	–	–

Cc1ccc2cc(-c3c(C)ccc(C(=O)c4c(-c5ccccc5)n(C)n(-c5ccccc5)c4=O)c3N)ccc2n1 [AMG-PERK-44]
Conditions	SARS-CoV-2 infection rate, [7] [%]	cell count, [1] [%]	cell viability, [2] [%]	cell viability, [3] [%]	cell viability, [4] [%]	cell viability, [5] [%]	cell viability, [6] [%]	morphology score, [8]
1 nM	–	–	105	85.8	98.4	92.6	96.5	–
10 nM	–	–	102	88.9	96.7	90.6	98.4	–
100 nM	–	–	100	92.9	98.1	75.3	93	–
0.3 µM	107	96	–	–	–	–	–	-0.16
1000 nM	–	–	95.7	98.7	102	68.5	91.3	–
3 µM	86	101	–	–	–	–	–	0.09
10 µM	91	103	–	–	–	–	–	0.05
10000 nM	–	–	111	116	101	97.1	86.7	–
30 µM	51	103	–	–	–	–	–	0.57

Conditions	drug sensitivity score	relative viability EC50 [µM]
[9]	0	–
[10]	0	–
[11]	0	–
[12]	0	–
[13]	0.2	–
[15]	–	> 10
[16]	–	> 10
[17]	–	> 10
[18]	–	> 10
[19]	–	> 10

drug-induced phospholipidosis [%], [14]
Conditions	0.3 µM	0.833333 µM	3.33333 µM	6.66667 µM	10 µM	30 µM
24 h	0.1	-2.94	-0.56	4.07	7.05	23.2
48 h	0.46	-0.23	5.6	10.1	14.1	24.3
72 h	0.916	0.798	10	13.7	17.9	33.4

CN1C2CCC1CC(OC(c1ccccc1)c1ccc(Cl)cc1)C2 (stereo unspecified) [3-CPMT]
Conditions	SARS-CoV-2 infection rate [%]	cell count [%]	cell viability [%]	morphology score	phospholipidosis EC50 [µM]
[1], 0.1 µM	–	105	–	–	–
[1], 0.3 µM	–	99	–	–	–
[1], 1 µM	–	116	–	–	–
[1], 3 µM	–	123	–	–	–
[2], 1 nM	–	–	107	–	–
[2], 10 nM	–	–	109	–	–
[2], 100 nM	–	–	106	–	–
[2], 1000 nM	–	–	91.3	–	–
[2], 10000 nM	–	–	55.1	–	–
[3], 1 nM	–	–	93.5	–	–
[3], 10 nM	–	–	97.3	–	–
[3], 100 nM	–	–	94.5	–	–
[3], 1000 nM	–	–	96.6	–	–
[3], 10000 nM	–	–	70.6	–	–
[4], 1 nM	–	–	104	–	–
[4], 10 nM	–	–	96.9	–	–
[4], 100 nM	–	–	100	–	–
[4], 1000 nM	–	–	97.1	–	–
[4], 10000 nM	–	–	72.6	–	–
[5], 1 nM	–	–	94.2	–	–
[5], 10 nM	–	–	89.7	–	–
[5], 100 nM	–	–	91.5	–	–
[5], 1000 nM	–	–	94.9	–	–
[5], 10000 nM	–	–	76.4	–	–
[6], 1 nM	–	–	99.3	–	–
[6], 10 nM	–	–	110	–	–
[6], 100 nM	–	–	97.6	–	–
[6], 1000 nM	–	–	98.6	–	–
[6], 10000 nM	–	–	59.5	–	–
[7], 0.1 µM	108	–	–	–	–
[7], 0.3 µM	96	–	–	–	–
[7], 1 µM	74	–	–	–	–
[7], 3 µM	32	–	–	–	–
[8], 0.1 µM	–	–	–	-0.03	–
[8], 0.3 µM	–	–	–	-0.04	–
[8], 1 µM	–	–	–	0.58	–
[8], 3 µM	–	–	–	0.88	–
[20], 24 h	–	–	–	–	3.84
[20], 48 h	–	–	–	–	4.5
[20], 72 h	–	–	–	–	4.56

Conditions	drug sensitivity score	relative viability EC50 [µM]
[9]	3.7	–
[10]	1.8	–
[11]	1.6	–
[12]	1.3	–
[13]	2.2	–
[18]	–	> 10

drug-induced phospholipidosis [%], [14]
Conditions	0.3 µM	0.833333 µM	3.33333 µM	6.66667 µM	10 µM	30 µM
24 h	4.71	3.97	55.2	83.2	94.4	114
48 h	7.06	3.72	51.9	88.1	103	126
72 h	7.88	7.28	40	85.2	102	–

COc1ccc(/C=C2\CCCN=C2c2cccnc2)c(OC)c1 [GTS21]
Conditions	SARS-CoV-2 infection rate, [7] [%]	cell count, [1] [%]	cell viability, [2] [%]	cell viability, [3] [%]	cell viability, [4] [%]	cell viability, [5] [%]	cell viability, [6] [%]	morphology score, [8]
1 nM	–	–	97.4	107	94.8	104	113	–
10 nM	–	–	94.1	100	105	97.2	101	–
100 nM	–	–	101	103	96.2	93.9	101	–
0.3 µM	108	96	–	–	–	–	–	-0.18
1000 nM	–	–	95.3	102	102	106	104	–
3 µM	99	99	–	–	–	–	–	-0.04
10 µM	86	110	–	–	–	–	–	0.24
10000 nM	–	–	97	86.3	90.9	95.4	93.7	–
30 µM	28	118	–	–	–	–	–	0.78

Conditions	drug sensitivity score	relative viability EC50 [µM]
[9]	0	–
[10]	0.1	–
[11]	0	–
[12]	0	–
[13]	0	–
[15]	–	> 10
[16]	–	> 10
[17]	–	> 10
[18]	–	> 10
[19]	–	> 10

drug-induced phospholipidosis [%], [14]
Conditions	0.3 µM	0.833333 µM	3.33333 µM	6.66667 µM	10 µM	30 µM
24 h	2.83	0.08	1.02	-1.62	5.46	7.31
48 h	4.89	-1.26	2.13	1.63	7.64	10
72 h	3.83	-0.539	2.57	1.51	7.5	15.1
